SMILES strings stand for the structures.

A short description of data set [1]: Lipophilicity of compound evaluated by HPLC retention time on reverse phase C18 column. Type of data set: physicochemical.
A short description of data set [2]: Half-life in the presence of pig liver esterase(PLE) was evaluated; […]. Type of data set: ADME, Sus scrofa. The following applies: in vitro.
Data set [3] in a line: Half-life in the presence of total cell extract(TCE) was evaluated. Type of data set: ADME.
A short description of data set [4]: Half-life in the presence of pig liver esterase(PLE) was evaluated. Type of data set: ADME, tissue-based, Sus scrofa.

One may read the half-life as how long it takes for the measured level to halve. In turn, `Cc1cn([C@H]2C[C@H](OP(=O)(O)OC[C@H]3O[C@@H](n4cc(C)c(=O)[nH]c4=O)C[C@@H]3OP(=S)(OCCSC(=O)C(C)(C)C)OC[C@H]3O[C@@H](n4cc(C)c(=O)[nH]c4=O)C[C@@H]3OP(=O)(O)OC[C@H]3O[C@@H](n4cc(C)c(=O)[nH]c4=O)C[C@@H]3OP(=S)(OCCSC(=O)C(C)(C)C)OC[C@H]3O[C@@H](n4cc(C)c(=O)[nH]c4=O)C[C@@H]3OP(=O)(O)OC[C@H]3O[C@@H](n4cc(C)c(=O)[nH]c4=O)C[C@@H]3OP(=S)(OCCSC(=O)C(C)(C)C)OC[C@H]3O[C@@H](n4cc(C)c(=O)[nH]c4=O)C[C@@H]3OP(=O)(O)OC[C@H]3O[C@@H](n4cc(C)c(=O)[nH]c4=O)C[C@@H]3OP(=S)(OCCSC(=O)C(C)(C)C)OC[C@H]3O[C@@H](n4cc(C)c(=O)[nH]c4=O)C[C@@H]3OP(=O)(O)OC[C@H]3O[C@@H](n4cc(C)c(=O)[nH]c4=O)C[C@@H]3OP(=S)(OCCSC(=O)C(C)(C)C)OC[C@H]3O[C@@H](n4cc(C)c(=O)[nH]c4=O)C[C@@H]3OP(=O)(O)OC[C@H]3O[C@@H](n4cc(C)c(=O)[nH]c4=O)C[C@@H]3OP(O)(=S)OCCSC(=O)C(C)(C)C)[C@@H](CO)O2)c(=O)[nH]c1=O` (stereo not given in full) returned a Retention time in data set [1] of 51.7 min. Moreover, the T1/2 result in data set [2] is “Stable”. In addition, in data set [3], the half-life was 2.5 h.

Consider `Cc1cn([C@H]2C[C@H](OP(=O)(O)S)[C@@H](COP(=O)(OCCSC(=O)C(C)(C)C)O[C@H]3C[C@H](n4cc(C)c(=O)[nH]c4=O)O[C@@H]3COP(=O)(S)O[C@H]3C[C@H](n4cc(C)c(=O)[nH]c4=O)O[C@@H]3COP(=O)(OCCSC(=O)C(C)(C)C)O[C@H]3C[C@H](n4cc(C)c(=O)[nH]c4=O)O[C@@H]3COP(=O)(S)O[C@H]3C[C@H](n4cc(C)c(=O)[nH]c4=O)O[C@@H]3COP(=O)(OCCSC(=O)C(C)(C)C)O[C@H]3C[C@H](n4cc(C)c(=O)[nH]c4=O)O[C@@H]3COP(=O)(S)O[C@H]3C[C@H](n4cc(C)c(=O)[nH]c4=O)O[C@@H]3COP(=O)(OCCSC(=O)C(C)(C)C)O[C@H]3C[C@H](n4cc(C)c(=O)[nH]c4=O)O[C@@H]3COP(=O)(S)O[C@H]3C[C@H](n4cc(C)c(=O)[nH]c4=O)O[C@@H]3COP(=O)(OCCSC(=O)C(C)(C)C)O[C@H]3C[C@H](n4cc(C)c(=O)[nH]c4=O)O[C@@H]3COP(=O)(S)O[C@H]3C[C@H](n4cc(C)c(=O)[nH]c4=O)O[C@@H]3COP(=O)(OCCSC(=O)C(C)(C)C)O[C@H]3C[C@H](n4cc(C)c(=O)[nH]c4=O)O[C@@H]3CO)O2)c(=O)[nH]c1=O` (stereo not given in full), for which the Retention time in data set [1] is 51.9 min. For the same compound, the T1/2 result in data set [2] is “Stable”. In addition, the half-life in data set [3] was 3 h.

In data set [1], `Cc1cn([C@H]2C[C@H](OP(=O)(O)S)[C@@H](COP(=S)(OCCSC(=O)C(C)(C)C)O[C@H]3C[C@H](n4cc(C)c(=O)[nH]c4=O)O[C@@H]3COP(=O)(S)O[C@H]3C[C@H](n4cc(C)c(=O)[nH]c4=O)O[C@@H]3COP(=S)(OCCSC(=O)C(C)(C)C)O[C@H]3C[C@H](n4cc(C)c(=O)[nH]c4=O)O[C@@H]3COP(=O)(S)O[C@H]3C[C@H](n4cc(C)c(=O)[nH]c4=O)O[C@@H]3COP(=S)(OCCSC(=O)C(C)(C)C)O[C@H]3C[C@H](n4cc(C)c(=O)[nH]c4=O)O[C@@H]3COP(=O)(S)O[C@H]3C[C@H](n4cc(C)c(=O)[nH]c4=O)O[C@@H]3COP(=S)(OCCSC(=O)C(C)(C)C)O[C@H]3C[C@H](n4cc(C)c(=O)[nH]c4=O)O[C@@H]3COP(=O)(S)O[C@H]3C[C@H](n4cc(C)c(=O)[nH]c4=O)O[C@@H]3COP(=S)(OCCSC(=O)C(C)(C)C)O[C@H]3C[C@H](n4cc(C)c(=O)[nH]c4=O)O[C@@H]3COP(=O)(S)O[C@H]3C[C@H](n4cc(C)c(=O)[nH]c4=O)O[C@@H]3COP(=S)(OCCSC(=O)C(C)(C)C)O[C@H]3C[C@H](n4cc(C)c(=O)[nH]c4=O)O[C@@H]3CO)O2)c(=O)[nH]c1=O` (stereo not given in full) showed a Retention time of 58.4 min. Besides, the T1/2 result in data set [2] was “Stable”. Also, the half-life in data set [3] was 17 h.

In data set [1], `Cc1cn([C@H]2C[C@H](OP(=O)(O)O)[C@@H](COP(=O)(OCCSC(=O)C(C)(C)C)O[C@H]3C[C@H](n4cc(C)c(=O)[nH]c4=O)O[C@@H]3COP(=O)(O)O[C@H]3C[C@H](n4cc(C)c(=O)[nH]c4=O)O[C@@H]3COP(=O)(OCCSC(=O)C(C)(C)C)O[C@H]3C[C@H](n4cc(C)c(=O)[nH]c4=O)O[C@@H]3COP(=O)(O)O[C@H]3C[C@H](n4cc(C)c(=O)[nH]c4=O)O[C@@H]3COP(=O)(OCCSC(=O)C(C)(C)C)O[C@H]3C[C@H](n4cc(C)c(=O)[nH]c4=O)O[C@@H]3COP(=O)(O)O[C@H]3C[C@H](n4cc(C)c(=O)[nH]c4=O)O[C@@H]3COP(=O)(OCCSC(=O)C(C)(C)C)O[C@H]3C[C@H](n4cc(C)c(=O)[nH]c4=O)O[C@@H]3COP(=O)(O)O[C@H]3C[C@H](n4cc(C)c(=O)[nH]c4=O)O[C@@H]3COP(=O)(OCCSC(=O)C(C)(C)C)O[C@H]3C[C@H](n4cc(C)c(=O)[nH]c4=O)O[C@@H]3COP(=O)(O)O[C@H]3C[C@H](n4cc(C)c(=O)[nH]c4=O)O[C@@H]3COP(=O)(OCCSC(=O)C(C)(C)C)O[C@H]3C[C@H](n4cc(C)c(=O)[nH]c4=O)O[C@@H]3CO)O2)c(=O)[nH]c1=O` (stereo not given in full) had a Retention time of 48.8 min. Moreover, the T1/2 result in data set [2] is “Stable”. The half-life in data set [3] is 1 h.

In data set [1], `CO[C@@H]1[C@H](OP(=O)(O)O)[C@@H](COP(=O)(O)O[C@H]2[C@@H](OC)[C@H](n3ccc(=O)[nH]c3=O)O[C@@H]2COP(=O)(O)O[C@H]2[C@@H](OC)[C@H](n3ccc(=O)[nH]c3=O)O[C@@H]2COP(=O)(OCCSC(=O)C(C)(C)C)O[C@H]2C[C@H](n3cc(C)c(=O)[nH]c3=O)O[C@@H]2COP(=O)(OCCSC(=O)C(C)(C)C)O[C@H]2C[C@H](n3cc(C)c(=O)[nH]c3=O)O[C@@H]2COP(=O)(OCCSC(=O)C(C)(C)C)O[C@H]2C[C@H](n3cc(C)c(=O)[nH]c3=O)O[C@@H]2COP(=O)(OCCSC(=O)C(C)(C)C)O[C@H]2C[C@H](n3cc(C)c(=O)[nH]c3=O)O[C@@H]2COP(=O)(OCCSC(=O)C(C)(C)C)O[C@H]2C[C@H](n3cc(C)c(=O)[nH]c3=O)O[C@@H]2COP(=O)(OCCSC(=O)C(C)(C)C)O[C@H]2C[C@H](n3cc(C)c(=O)[nH]c3=O)O[C@@H]2COP(=O)(O)O[C@H]2[C@@H](OC)[C@H](n3cc(C)c(=O)[nH]c3=O)O[C@@H]2COP(=O)(O)O[C@H]2[C@@H](OC)[C@H](n3ccc(=O)[nH]c3=O)O[C@@H]2COP(=O)(O)O[C@H]2[C@@H](OC)[C@H](n3ccc(=O)[nH]c3=O)O[C@@H]2CO)O[C@H]1n1ccc(=O)[nH]c1=O` (stereo not given in full) returned a Retention time of 54.7 min. For the same compound, the half-life in data set [3] is 0.25 h; in data set [4], 5 min.

Values taken from ChEMBL document CHEMBL1131398, “First synthesis of alternating SATE-phosphotriester/phosphodiester prooligonucleotides on solid support” (Bioorg Med Chem Lett, 1998).
